According to patent US20090029355A1, “Abnormalities of Phosphatase 2A (PP2A) for Diagnosis and Treatment of Alzheimer's Disease” (priority 2004, published 2009):
Entries after “also recorded” stand apart in the source; their conditions may differ.

How the values were obtained:
[1] = test system: Erk1/2 phosphorylation in AD cells; experiment: Erk1/2 phosphorylation on Western blots in AD fibroblasts; assay type: cell-based, human; conditions: about 10 nM OA, about 10 nM BK, about 10 min
Protocol: (§1) After serum-starving overnight, cells are treated as such: 1) BK treatment for about 10 min, 2) pretreatment with about 10 nM OA for about 15 min followed by BK treatment and another dose of OA for about 10 min. Reactions are terminated, cells are lysed in a lysis buffer, and the extent of Erk1/2 phosphorylation and levels of the total Erk1/2 are determined using Western blots. After normalizing with signals of the total Erk1/2, the ratio of BK-stimulated Erk1/2 phosphorylation in the presence and absence of OA is calculated. […]
(§2) Erk1/2 phosphorylation from different treatments was determined on Western blots using an anti-phospho-Erk1/2 antibody (Cell Signaling Technology), the total amount of Erk1/2 protein loaded on the SDS gel was determined by an anti-regular Erk1/2 antibody (Upstate Biotechnology), and was used to normalize the detected phospho-Erk1/2 signals.
(§3) (1) Quantitative PCR values for PP2A mRNA in each sample of 19 AC and 19 AD cell lines were normalized by those of GPDH in the same sample. […] The densitometric values for PP2A were normalized by those of annexin 11 and quantified with UN-SCAN-IT software (Silk Scientific, Inc.) (3) To assess Erk1/2 phosphorylation, ratios for phospho-Erk1/2 over those of the total Erk1/2 were calculated. […]

[2] = test system: Erk1/2 phosphorylation in AC cells; experiment: Erk1/2 phosphorylation on Western blots in AC fibroblasts; assay type: cell-based, human; conditions: about 10 nM OA, about 10 nM BK, about 10 min
Protocol: as §1, §2, §3

C=C1[C@@H](O)[C@@H]2O[C@]3(CC[C@H](/C=C/[C@@H](C)[C@@H]4CC(C)=C[C@@]5(O[C@H](C[C@@](C)(O)C(=O)O)CC[C@H]5O)O4)O3)CC[C@H]2O[C@@H]1[C@@H](O)C[C@H](C)[C@H]1O[C@@]2(CCCCO2)CC[C@H]1C [OA, okadiac acid]
BK-stimulated Erk1/2 phosphorylation on addition of OA [1]: did not further increase Erk1/2 phosphorylation
Erk1/2 dephosphorylation after BK stimulation in the presence of OA [2]: inhibited Erk1/2 dephosphorylation; also recorded: significantly inhibited
